Reference: patent US20190209697A1, “CELLS LABELLED WITH LIPID CONJUGATES AND METHODS OF USE THEREOF” (priority 2015, published 2019)

System: Jurkat cells
Assay: Efficiency of incorporation of AF488-capped glycopolymers into cell membranes, flow cytometry
Assay type: cell-based
Conditions: 10 μM AF488-capped polymer, 1 h at RT
Procedure: Using AF488 labeled polymers, the efficiency with which each glycopolymer was incorporated into cell membranes was measures. Jurkat cells (10^7/mL in serum-free media) were incubated for 1 h at room temperature with 10 μM lipid-conjugated glycopolymer, washed, and then measured for fluorescence by flow cytometry (FIG. 4, panel A).
Jurkat cells were incubated with 10 μM of AF488-capped polymer for 1 h at RT, washed and their fluorescence measured by flow cytometry. […] For FIG. 4-FIG. 5, shown are mean minus background+/−standard deviation of three replicate experiments.
Jurkat cells (10^7/mL) were incubated with AF488-polymers at the given concentration or PBS in serum free media for 1 hr at RT. The cells were then washed, and their fluorescence measured by flow cytometry. Shown are mean and standard deviation of three replicate experiments minus background as measured by cells incubated with PBS instead of polymer.

**Q.** How did the “level of incorporation into cell membranes” value turn out when DMPC was run?
**A.** highest levels of incorporation
